Source: patent EP4692071A1, “PHOTOCHROMIC COMPOUND, NAPHTHOL DERIVATIVE, CURABLE COMPOSITION, OPTICAL ARTICLE, LENS, AND EYEGLASS” (TOKUYAMA CORPORATION, priority 2023, dated 2024)
Where “and” joins values, the source holds several entries; their conditions need not be identical. Identical values can stand only once.

How the values were obtained:
Type in all cases: physicochemical
[1] = 23°C color optical density (A23): absorbancy difference ε(240)-ε(0) after 240 s light irradiation at 23°C; details: photochromic laminate by coating method, 240 s irradiation, at the maximum absorption wavelength
In short: (§1)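 Photochromic plastic lens irradiated 240 s at 23°C; colour density is ε(240)−ε(0) at λmax, measured with an instantaneous multichannel photodetector. Fading half-life is the time after irradiation stops for absorbance to fall to half that difference. Durability is A90/A0×100 after 90 h accelerated deterioration in a xenon weather meter.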

[2] = 23°C color fading half-life τ1/2 after 240 s light irradiation
Method: • [1] Maximum Absorption Wavelength (λmax): The maximum absorption wavelength after color development, measured using a spectrophotometer (instantaneous multichannel photodetector MCPD3000) manufactured by Otsuka Electronics Co., Ltd. was used as an indicator for the color tone during the color development. • [2] 23°C Color Optical Density (A23): A difference between an absorbancy measured after light irradiation at 23°C for 240 seconds {ε(240)} and an absorbancy without light irradiation ε(0) at the maximum absorption wavelength was used as an indicator for the color optical density. […] 35°C Color Optical Density (A35): A difference between an absorbancy measured after light irradiation at 35°C for 240 seconds {ε(240)} and an absorbancy without light irradiation ε(0) at the first and second absorption wavelengths was used as an indicator for the color optical density. […] 23°C color fading half-life [τ1/2 (sec.)]: A time required for the absorbancy of the sample at the maximum absorption wavelength to decrease to 1/2 of {ε(240)-ε(0)} when the light irradiation is terminated after the light irradiation at 23°C for 240 seconds, was used as an indicator for the color fading speed. The shorter this time, the higher the color fading speed. • [6] Residual rate (A90/A0×100): The obtained photochromic plastic lens was subjected to accelerated deterioration using a xenon weather meter X25 manufactured by Suga Test Instruments Co., Ltd. for 90 hours. Subsequently, the color optical density was evaluated before and after the test, then a color optical density before the test (A0) and a color optical density after the test (A90) were measured, and a ratio (A90/A0) was defined as a residual rate. The residual rate was used as an indicator for a color developing durability. The higher the residual rate, the higher the color developing durability.

[3] = Maximum absorption wavelength (λmax) after color development, spectrophotometer MCPD3000; details: photochromic laminate by coating method, 40 µm photochromic layer on thiourethane lens, 0.25 mmol compound per 100 g monomers
In short: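 Read-out: absorbance at λmax, multichannel photodetector spectrophotometer. Colour density = ε(240) − ε(0), 240 s light, 23°C. τ1/2 = time for ε(240) − ε(0) to halve after light off. Residual rate compares density before and after 90 h xenon weathering.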

[4] = Residual rate (A90/A0×100) after 90 h accelerated deterioration in xenon weather meter X25, color developing durability; details: photochromic laminate by coating method; xenon weather meter 90 hours
In short: as §1

[5] = 35°C color optical density (A35): absorbancy difference ε(240)-ε(0) after 240 s light irradiation at 35°C; details: photochromic laminate by coating method, 240 s irradiation
In short: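 Color optical density at 35°C (A35) came from light exposure of the sample at 35°C lasting 240 seconds. At the first and second absorption wavelengths, the absorbancy before irradiation, ε(0), was subtracted from the absorbancy measured after irradiation, ε(240). This difference was taken as the measure of color optical density.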

[6] = High-temperature color development rate (A35/A23×100), temperature dependency; details: photochromic laminate by coating method
In short: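 The sample was irradiated with light for 240 seconds at 23°C and separately at 35°C. The gain in absorbance over the unirradiated state, ε(240)−ε(0), gave the color optical densities A23 and A35. A35 divided by A23, multiplied by 100, expressed how well color development holds up at the higher temperature.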

A23 (-) [1]: 0.66 - and 0.71 -
23°C color fading half-life [2]: 47 s
Maximum absorption wavelength (nm) [3]: 468 nm and 597 nm
Residual rate (%) [4]: 77%
A35 (-) [5]: 0.44 - and 0.48 -
A35/A23 *100 (%) [6]: 67% and 68%
SMILES: COCCCC1(CCCOC)c2cc(Sc3c(C)cccc3C)ccc2-c2c1c1c(c3cc(OC)c(N(CCOC)c4ccc(C(F)(F)F)cc4)cc23)OC(c2ccc(OC)cc2)(c2ccc(OC)cc2)C=C1 [Example 57 Formula (132)]
